Reference: PubChem BioAssay AID328 (DTP/NCI, 2004)
“And” between values parts separate entries of the source, which are not always exact repeats. Identical values can stand only once. Toxic doses and inconclusive results are not listed.

Tested on: BDF1 mice, P388 leukemia ip, median survival T/C
Experiment: NCI In Vivo Anticancer Drug Screen. Data for tumor model P388 Leukemia (intraperitoneal) in B6D2F1 (BDF1) mice
Settings: endpoint: median survival time, higher = longer survival
Method in brief: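 Compound-treated tumour-bearing mice were compared with vehicle-treated controls. Survival was recorded, and the value is the treated-group measurement divided by the control-group measurement (T/C).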

[1] = dose: 100.0 mg/kg/injection, schedule: Q01DX009 (ip), vehicle: Klucel (hydroxypropylcellulose) (HPC)
[2] = dose: 100.0 mg/kg/injection, schedule: Q04DX003 (ip), vehicle: Klucel (hydroxypropylcellulose) (HPC)
[3] = dose: 200.0 mg/kg/injection, schedule: Q01DX009 (ip), vehicle: Klucel (hydroxypropylcellulose) (HPC)
[4] = dose: 200.0 mg/kg/injection, schedule: Q04DX003 (ip), vehicle: Klucel (hydroxypropylcellulose) (HPC)
[5] = dose: 100.0 mg/kg/injection, schedule: Q01DX009 (ip), vehicle: saline with Tween-80
[6] = dose: 100.0 mg/kg/injection, schedule: Q04DX003 (ip), vehicle: saline with Tween-80
[7] = dose: 200.0 mg/kg/injection, schedule: Q01DX009 (ip), vehicle: saline with Tween-80
[8] = dose: 200.0 mg/kg/injection, schedule: Q04DX003 (ip), vehicle: saline with Tween-80
[9] = dose: 400.0 mg/kg/injection, schedule: Q01DX009 (ip), vehicle: saline with Tween-80
[10] = dose: 400.0 mg/kg/injection, schedule: Q04DX003 (ip), vehicle: saline with Tween-80
[11] = dose: 400.0 mg/kg/injection, schedule: Q04DX003 (ip), vehicle: Klucel (hydroxypropylcellulose) (HPC)
[12] = dose: 25.0 mg/kg/injection, schedule: Q01DX009 (ip), vehicle: saline with Tween-80
[13] = dose: 50.0 mg/kg/injection, schedule: Q01DX009 (ip), vehicle: saline with Tween-80
[14] = dose: 50.0 mg/kg/injection, schedule: Q04DX003 (ip), vehicle: saline with Tween-80

C[C@]1(O)CC[C@H]2[C@@H]3CCC4=CC(=O)CCC4=C3C=C[C@@]21C
T/C (dose: 12.5 mg/kg/injection, schedule: Q01DX009 (ip), vehicle: Klucel (hydroxypropylcellulose) (HPC)): 87 % of control
T/C (dose: 25.0 mg/kg/injection, schedule: Q01DX009 (ip), vehicle: Klucel (hydroxypropylcellulose) (HPC)): 91 % of control
T/C (dose: 50.0 mg/kg/injection, schedule: Q01DX009 (ip), vehicle: Klucel (hydroxypropylcellulose) (HPC)): 91 % of control
T/C [1]: 104 % of control
T/C [2]: 104 % of control
T/C [3]: 109 % of control
T/C [4]: 104 % of control

C[n+]1c(-c2cccc3ccccc23)c2cc([N+](=O)[O-])ccc2c2ccccc21
T/C (dose: 1.0 mg/kg/injection, schedule: Q04DX003 (ip), vehicle: water): 113 % of control
T/C (dose: 2.0 mg/kg/injection, schedule: Q04DX003 (ip), vehicle: water): 104 % of control
T/C (dose: 4.0 mg/kg/injection, schedule: Q01DX009 (ip), vehicle: water): 118 % of control
T/C (dose: 4.0 mg/kg/injection, schedule: Q04DX003 (ip), vehicle: water): 115 % of control
T/C (dose: 8.0 mg/kg/injection, schedule: Q04DX003 (ip), vehicle: water): 97 % of control and 108 % of control
T/C (dose: 16.0 mg/kg/injection, schedule: Q04DX003 (ip), vehicle: water): 109 % of control
T/C (dose: 32.0 mg/kg/injection, schedule: Q01DX009 (ip), vehicle: water): 109 % of control
T/C (dose: 32.0 mg/kg/injection, schedule: Q04DX003 (ip), vehicle: water): 106 % of control

CCOC(=O)C/C(C)=N\NC(=O)c1ccncc1
T/C (dose: 75.0 mg/kg/injection, schedule: Q01DX009 (ip), vehicle: saline with Tween-80): 88 % of control
T/C (dose: 150.0 mg/kg/injection, schedule: Q01DX009 (ip), vehicle: saline with Tween-80): 102 % of control

Nc1ccccc1SC1CC(=O)N(c2ccc(Br)c(Cl)c2)C1=O (stereo not drawn)
T/C (dose: 0.1 mg/kg/injection, schedule: Q01DX005 (ip), vehicle: saline with Tween-80): 98 % of control
T/C (dose: 0.2 mg/kg/injection, schedule: Q01DX005 (ip), vehicle: saline with Tween-80): 93 % of control
T/C (dose: 0.4 mg/kg/injection, schedule: Q01DX005 (ip), vehicle: saline with Tween-80): 100 % of control
T/C (dose: 1.5 mg/kg/injection, schedule: Q01DX005 (ip), vehicle: saline with Tween-80): 95 % of control
T/C (dose: 3.0 mg/kg/injection, schedule: Q01DX005 (ip), vehicle: saline with Tween-80): 90 % of control

C[N+](C)(CCc1ccccc1)CC(O)COc1ccccc1 (stereo not drawn)
T/C (dose: 9.5 mg/kg/injection, schedule: Q01DX009 (ip), vehicle: Klucel (hydroxypropylcellulose) (HPC)): 96 % of control
T/C (dose: 9.5 mg/kg/injection, schedule: Q04DX003 (ip), vehicle: Klucel (hydroxypropylcellulose) (HPC)): 95 % of control
T/C (dose: 19.0 mg/kg/injection, schedule: Q01DX009 (ip), vehicle: Klucel (hydroxypropylcellulose) (HPC)): 96 % of control
T/C (dose: 19.0 mg/kg/injection, schedule: Q04DX003 (ip), vehicle: Klucel (hydroxypropylcellulose) (HPC)): 95 % of control
T/C (dose: 38.0 mg/kg/injection, schedule: Q04DX003 (ip), vehicle: Klucel (hydroxypropylcellulose) (HPC)): 100 % of control

COc1ccc(CCNC(=O)Cc2ccccc2)cc1OC
T/C [5]: 95 % of control
T/C [6]: 109 % of control
T/C [7]: 90 % of control
T/C [8]: 100 % of control
T/C [9]: 100 % of control
T/C [10]: 100 % of control

Nc1n[nH]c(=S)n1-c1ccc(Cl)cc1
T/C [2]: 100 % of control
T/C [4]: 104 % of control
T/C [11]: 100 % of control

C=CCN(CC=C)c1ccccc1
T/C [1]: 104 % of control
T/C [2]: 100 % of control
T/C [3]: 109 % of control
T/C [4]: 100 % of control
T/C (dose: 400.0 mg/kg/injection, schedule: Q01DX009 (ip), vehicle: Klucel (hydroxypropylcellulose) (HPC)): 122 % of control
T/C [11]: 112 % of control

Cn1nc(-c2ccccc2)nc1[N+](=O)[O-]
T/C (dose: 12.5 mg/kg/injection, schedule: Q01DX009 (ip), vehicle: saline with Tween-80): 114 % of control
T/C [12]: 97 % of control
T/C [13]: 93 % of control
T/C [5]: 99 % of control

ClCCCN1CCN(CCCCl)CC1
T/C (dose: 6.25 mg/kg/injection, schedule: Q01DX009 (ip), vehicle: distilled water + alcohol): 101 % of control
T/C (dose: 12.5 mg/kg/injection, schedule: Q01DX009 (ip), vehicle: distilled water + alcohol): 99 % of control
T/C (dose: 25.0 mg/kg/injection, schedule: Q01DX009 (ip), vehicle: distilled water + alcohol): 115 % of control
T/C (dose: 100.0 mg/kg/injection, schedule: Q01DX009 (ip), vehicle: distilled water + alcohol): 171 % of control

COc1ccc(NC(=O)Oc2ccc3c(C)cc(=O)oc3c2)c(OC)c1
T/C [7]: 155 % of control
T/C [9]: 100 % of control

CCCC(O)(CCC)CC1=NC(C)(C)CO1
T/C (dose: 75.0 mg/kg/injection, schedule: Q04DX003 (ip), vehicle: saline sonified): 110 % of control
T/C (dose: 150.0 mg/kg/injection, schedule: Q04DX003 (ip), vehicle: saline sonified): 105 % of control
T/C (dose: 300.0 mg/kg/injection, schedule: Q04DX003 (ip), vehicle: saline sonified): 100 % of control

N#Cc1c(Cl)c(Cl)c(OC(=O)c2ccc(Cl)c(Cl)c2)c(Cl)c1Cl
T/C [13]: 117 % of control
T/C [5]: 108 % of control
T/C [7]: 94 % of control

CC(=O)Nc1ccc2c(c1)C[N+](C)(C1CCCCC1)CO2 (stereo not drawn)
T/C [12]: 109 % of control
T/C (dose: 25.0 mg/kg/injection, schedule: Q04DX003 (ip), vehicle: saline with Tween-80): 95 % of control
T/C [13]: 109 % of control
T/C [14]: 91 % of control
T/C [6]: 95 % of control

CC(=O)OCc1ccc(Cl)cc1
T/C [13]: 116 % of control
T/C [5]: 112 % of control

CCN(CC)c1c(C)nnc2c(-c3ccccc3)nnn12
T/C [14]: 97 % of control
T/C [6]: 100 % of control
T/C [8]: 97 % of control

Cc1c(O)ccc(=O)n1O
T/C (dose: 20.0 mg/kg/injection, schedule: Q01DX009 (ip), vehicle: Klucel (hydroxypropylcellulose) (HPC)): 108 % of control
T/C (dose: 20.0 mg/kg/injection, schedule: Q01DX009 (ip), vehicle: saline): 95 % of control
T/C (dose: 40.0 mg/kg/injection, schedule: Q01DX009 (ip), vehicle: Klucel (hydroxypropylcellulose) (HPC)): 121 % of control
T/C (dose: 40.0 mg/kg/injection, schedule: Q01DX009 (ip), vehicle: saline with Tween-80): 117 % of control
T/C (dose: 40.0 mg/kg/injection, schedule: Q01DX009 (ip), vehicle: saline): 95 % of control
T/C (dose: 80.0 mg/kg/injection, schedule: Q01DX009 (ip), vehicle: Klucel (hydroxypropylcellulose) (HPC)): 110 % of control
T/C [5]: 116 % of control
T/C [6]: 104 % of control
T/C (dose: 160.0 mg/kg/injection, schedule: Q01DX009 (ip), vehicle: saline with Tween-80): 122 % of control
T/C (dose: 160.0 mg/kg/injection, schedule: Q01DX009 (ip), vehicle: saline): 100 % of control
T/C [7]: 108 % of control
T/C [8]: 100 % of control
T/C [10]: 90 % of control

CCOC12CC(OC(=O)N1)C(C)C1OC1(C)C(OC(=O)C(C)N(C)C(C)=O)CC(=O)N(C)c1cc(cc(OC)c1Cl)C/C(C)=C/C=CC2OC (stereo not drawn)
T/C (dose: 1.6 micrograms/kg/injection, schedule: Q01DX009 (ip), vehicle: saline + alcohol): 99 % of control
T/C (dose: 3.1 micrograms/kg/injection, schedule: Q01DX009 (ip), vehicle: saline + alcohol): 99 % of control
T/C (dose: 6.2 micrograms/kg/injection, schedule: Q01DX009 (ip), vehicle: saline + alcohol): 99 % of control
T/C (dose: 12.5 micrograms/kg/injection, schedule: Q01DX009 (ip), vehicle: saline + alcohol): 101 % of control
T/C (dose: 25.0 micrograms/kg/injection, schedule: Q01DX009 (ip), vehicle: saline + alcohol): 116 % of control
T/C (dose: 50.0 micrograms/kg/injection, schedule: Q01DX009 (ip), vehicle: saline + alcohol): 98 % of control
T/C (dose: 100.0 micrograms/kg/injection, schedule: Q01DX009 (ip), vehicle: saline + alcohol): 105 % of control
T/C (dose: 200.0 micrograms/kg/injection, schedule: Q01DX009 (ip), vehicle: saline + alcohol): 98 % of control
T/C (dose: 400.0 micrograms/kg/injection, schedule: Q01DX009 (ip), vehicle: saline + alcohol): 100 % of control

Cc1ccc(-n2c(O)c(C=N)c(=O)[nH]c2=O)cc1
T/C [13]: 86 % of control
T/C [5]: 86 % of control
T/C [7]: 113 % of control
